Some test systems named below: U-251; SK-MEL-28; NCI-H522; TK-10; MDA-N; EKVX; OVCAR-5; UACC-62; OVCAR-3; SNB-75; UO-31; UACC-257; HCT-116; SNB-19; ACHN; MDA-MB-231; HCT-15; LXFL 529; Malme-3M; PC-3.
Holding throughout (assay): NCI-60 cell line screen, 48 h

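Step 1: Grow cells in 96-well plates. Step 2: Expose to compound for 48 hours at 5 concentrations. Step 3: Interpolate endpoints linearly; if unreached, use highest concentration. Abbreviation: GI50, concentration required for 50% inhibition of growth.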 Active and inactive are the calls of the source. Rule as the data show it: active = GI50 up to about 1.1 µM and inactive = higher.

The values that follow come from ChEMBL document CHEMBL1201862, “PubChem BioAssay data set” (2004).

Turning to `O=C(O)CCSC(=S)Nc1ccc([N+](=O)[O-])cc1`, the GI50 with U-251 is > 56.2 µM (inactive); in the assay with SK-MEL-28, 41.3 µM (inactive); with NCI-H522, > 46.5 µM (inactive); in the assay with TK-10 it was 51.8 µM (inactive); in the assay on MDA-N, 23.1 µM (inactive); in the assay with EKVX it was > 51.4 µM (inactive). The GI50 is > 100 µM (inactive) in the assay on OVCAR-5; 21.6 µM (inactive) with UACC-62; 45 µM (inactive) with OVCAR-3; 33.4 µM (inactive) in the assay with SNB-75; > 63.1 µM (inactive) with UO-31; 22.3 µM (inactive) with UACC-257. Besides, the GI50 was 60.7 µM (inactive) with HCT-116; > 81.8 µM (inactive) with SNB-19; 33.8 µM (inactive) in the assay with ACHN; > 100 µM (inactive) with MDA-MB-231; greater than 56.6 µM with HCT-15; 46.6 µM (inactive) with LXFL 529. Moreover, the GI50 with Malme-3M was 38.2 µM (inactive); with PC-3, 48.2 µM (inactive).
For `Oc1ncnc2c1CCCN2`, the GI50 with U-251, in the assay on SK-MEL-28, in the assay on NCI-H522, in the assay with TK-10, with EKVX and in the assay with OVCAR-5 was > 100 µM (inactive) in each case. The GI50 in the assay with UACC-62, in the assay with OVCAR-3, in the assay on SNB-75, in the assay with UO-31, in the assay with UACC-257 and in the assay on HCT-116 was > 100 µM (inactive) each time. For the same compound, the GI50 is > 100 µM (inactive) with SNB-19; > 100 µM (inactive) with ACHN; greater than 100 µM in the assay with HCT-15; > 100 µM (inactive) in the assay with LXFL 529; > 100 µM (inactive) in the assay with Malme-3M.
With `COC(=O)C1C(O)CC(c2ccccn2)N(Cc2ccccc2)C1c1ccccn1` (centres undefined), the GI50 in the assay with U-251, in the assay with SK-MEL-28, in the assay on NCI-H522, with TK-10, in the assay on EKVX and with OVCAR-5 was > 100 µM (inactive) each time. In addition, the GI50 in the assay on UACC-62 was > 100 µM (inactive); in the assay with OVCAR-3, > 100 µM (inactive); in the assay with SNB-75, > 100 µM (inactive); in the assay with UO-31, > 100 µM (inactive); in the assay on UACC-257, > 100 µM (inactive); with HCT-116, 94.4 µM (inactive). The GI50 with SNB-19 is > 100 µM (inactive); in the assay on ACHN it was > 100 µM (inactive); with HCT-15, greater than 100 µM; in the assay with LXFL 529 it was > 100 µM (inactive); in the assay on Malme-3M, > 100 µM (inactive).
